# What was measured:
# [1] = target: T1, human vasopressin V2 receptor subtype (Homo sapiens, UniProt P30518); experiment: Vasopressin binding in CHO cell membranes expressing human vasopressin V2 subtype receptors ([3H]arginine vasopressin radioligand binding); details: for inhibition at 0.1 µM / V2 % inhibition @ 100 nM: 100 nM
# T1 construct: host or cells: CHO cells, stably transfected (pZeoSV vector)
# Description: Chinese Hamster Ovary (CHO) cells stably transfected with the human V2 subtype receptors were obtained from M. Thibonnier, Case Western Reserve University School of Medicine, Cleveland, Ohio.
# CHO cells transfected with the human vasopressin V2 subtype receptors obtained from M. Thibonnier (pZeoSV vector) are allowed to grow to confluency (approx. >90%) in T-150 flasks under sterile conditions, in a cell culture medium consisting of F-12 Nutrient Mixture (HAM) with L-glutamine (Gibco Cat. #11765-054) containing 15 mM HEPES (Gibco Cat. #15630-080), 1% antibiotic/antimycotic (add 5 mL 100×, Gibco Cat. #15240-062 per 500 mL F-12), 250 μg/mL Zeocin (add 1.25 mL of 100 mg/mL Invitrogen R-250-01 per 500 mL F-12) and 10% Fetal Bovine Serum (Qualified, heat inactivated, Gibco Cat. #16140-063). The medium is removed by aspiration and the cells washed with 10 mL of Hank's Balanced Salt solution (Gibco Cat. #14175-095). The salt solution is removed by aspiration and the cells trypsinized with 5 mL of trypsin-EDTA (0.05% trypsin, 0.53 mM EDTA-4Na, Gibco Cat. #25300-070) for 1 min. The trypsin is removed by aspiration and the cells dislodged by tapping. Cell Culture medium (e.g. 30 mL for 1:30 split) is immediately added and mixed well to inactivate trypsin. 1 mL of detached cells is added to new culture flasks containing fresh Cell Culture medium (e.g. into 25 mL per T-150 flask), and mixed gently. The cells are incubated at 37° C. in 5% CO2. The medium is changed at 3 to 4 day interval (or as appropriate). The cells grow to confluency (approx. >75%-95%) within 7-8 days. All steps are done under sterile conditions.
# The cells are washed twice gently with Hank's Balanced Salt solution (e.g. use 10 mL per T-150 flask). The excess solution is removed and the cells bathed for 15-30 min. in an enzyme-free Cell Dissociation Buffer (e.g. use 8 mL Hank's Based, Gibco Cat. #13150-016 per T-150 flask) until cells are loosened. The contents are transferred to centrifuge tubes (50 mL) kept in an ice bath. All subsequent steps are done at 4° C. The tubes are centrifuged at 300×g for 15 min (1380 rpm on SORVAL, Model RT6000D, using the rotor for 50 mL tubes). The supernatant is discarded and the cells suspended in homogeneizing buffer(10 mM Tris-HCl containing 0.25 M sucrose and 1 mM EDTA, pH 7.4) ensuring that the volume of the buffer is about ten times the volume of the cell pellet. The cells are pooled into a centrifuge tube (50 mL) and homogenized with Polytron at setting 6 for 10 sec. The homogenate is transferred into a Potter-Elvjehm homogeneizer and homogenized with 3 strokes. The homogenate is centrifuged at 1500×g for 60 min at 4° C. (3100 rpm using SORVAL, model RT6000D, using the rotor for 50 mL tubes). The pellet is discarded. The supernatant is centrifuged at 100,000×g for 60 min. at 4° C. (Beckman L8-80M ultracentrifuge; spin at 37,500 rpm with rotor type 70 Ti for 50 mL tubes; 38,000 rpm with type 80 Ti for 15 mL tubes; or 35,800 rpm with rotor type 45Ti). The supernantant is discarded and the pellet suspended in 3 to 4 mL of Tris buffer (50 mM TRIS-HCl, pH 7.4). The protein content is estimated by the Bradford or Lowry method. The volume of the membrane suspension is adjusted with the membrane buffer (50 mM Tris-HCl containing 0.1% BSA and 0.1 mM PMSF) to give 3.0 mg/mL (or as appropriate) of protein. The membranes are aliquoted and stored at −70° C.
# In wells of a 96-well format microtiter plate, is added 90, 110 or 130 μL (to make up a final volume of 200 μL) of assay buffer containing 50 mM of Tris-HCl (pH 7.4), […], 1 mg % aprotinin, 1 mg % leupeptin, 2 mg % 1,10-phenanthroline, 10 mg % trypsin inhibitor, and 0.1 mM PMSF. The inhibitors are added on the day of the experiment. The components are mixed at room temperature, and then kept in ice bath following adjustment of the pH to 7.4. […]
# T1 sequence (P30518 whole entry): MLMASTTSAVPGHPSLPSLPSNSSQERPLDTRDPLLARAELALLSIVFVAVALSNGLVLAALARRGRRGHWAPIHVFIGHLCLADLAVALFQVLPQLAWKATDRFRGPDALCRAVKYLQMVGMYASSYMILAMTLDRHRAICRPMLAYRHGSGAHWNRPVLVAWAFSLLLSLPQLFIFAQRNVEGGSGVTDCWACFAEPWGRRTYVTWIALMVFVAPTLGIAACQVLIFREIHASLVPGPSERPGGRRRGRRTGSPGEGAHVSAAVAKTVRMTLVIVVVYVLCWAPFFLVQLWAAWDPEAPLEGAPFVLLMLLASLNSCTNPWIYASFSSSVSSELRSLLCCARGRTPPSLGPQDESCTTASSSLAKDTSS
structure (smiles),measurement,setting,value
"CC1=C(c2ccc(C(=O)N3Cc4ccc(C(=O)N5CCN(C)CC5)n4Cc4ccccc43)cc2C)CCC[C@H]1O [Example 11, [4-((3R)-3-Hydroxy-2-methyl-cyclohex-1-en-1-yl)-3-methyl-phenyl]-[3-(4-methyl-piperazine-1-carbonyl)-10,11-dihydro-5H-pyrrolo [2,1-c][1,4]benzodiazepin-10-yl]-methanone]",melting point,,102 to 153 °C
same,inhibition at 0.1 µM,[1],14%
"COc1cc(C2=CCCCC2)c(Cl)cc1C(=O)N1Cc2ccc(C(=O)N3CCC[C@H]3CN3CCCC3)n2Cc2ccccc21 [Example 1, 4-Chloro-5-cyclohex-1-en-1-yl-2-[(3-{[(2S)-2-(pyrrolidin-1-ylmethyl)pyrrolidin-1-yl]carbonyl}-5H-pyrrolo [2,1-c][1,4]benzodiazepin-10(11H)-yl)carbonyl]phenyl methyl ether]",melting point,,109 to 121 °C
same,IC50,[1]; value in parentheses,> 3 µM
"Cc1cc(C(=O)N2Cc3ccc(C(=O)N4CCCN(C)CC4)n3Cc3ccccc32)ccc1C1=CCCCC1 [Example 13, {10-[4-(1-Cyclohex-1-en-1-yl)-3-methylbenzoyl]-10,11-dihydro-5H-pyrrolo[2,1-c][1,4]benzodiazepin-3-yl}(4-methyl-1,4-diazepan-1-yl)methanone]",V2 % inhibition @ 100 nM,[1],3%
"Cc1cc(C(=O)N2Cc3ccc(C(=O)NCCCN(C)C)n3Cc3ccccc32)ccc1C1=CCCCC1 [Example 14, 10-[4-(1-Cyclohex-1-en-1-yl)-3-methylbenzoyl]-N-[3-(dimethylamino)propyl]-10,11-dihydro-5H-pyrrolo[2,1-c][1,4]benzodiazepine-3-carboxamide]",V2 % inhibition @ 100 nM,[1],5%
"COc1cc(C2=CCCCC2)c(Cl)cc1C(=O)N1Cc2ccc(C(=O)N(C)CCCN(C)C)n2Cc2ccccc21 [Example 2, 10-(5-Chloro-4-cyclohex-1-en-1-yl-2-methoxybenzoyl)-N-[3-(dimethylamino)propyl]-N-methyl-10,11-dihydro-5H-pyrrolo[2,1-c][1,4]benzodiazepine-3-carboxamide]",inhibition at 0.1 µM,[1],4%
"CC1=C(c2ccc(C(=O)N3Cc4ccc(C(=O)N5CCN(C)CC5)n4Cc4ccccc43)cc2C)CCCC1O (centres unmarked) [Example 10, [4-(3-Hydroxy-2-methyl-cyclohex-1-en-1-yl)-3-methyl-phenyl]-[3-(4-methyl-piperazine-1carbonyl)-10,11-dihydro-5H-pyrrolo[2,1-c][1,4]benzodiazepin-10-yl]-methanone]",inhibition at 0.1 µM,[1],-8%

# From US7326700B2, “Cyclohexenyl phenyl carboxamides tocolytic oxytocin receptor antagonists” (Wyeth, priority 2001, dated 2008)
